The values below come from US20230339915A1 (Vertex Pharmaceuticals Incorporated, priority 2020, published 2023).

Bounds are passed on as bounds.

Test [1] has as its target NL20 human bronchial epithelial cells expressing human Z-AAT (Homo sapiens (Human), UniProt P01009, E366K). Nature of the test: AAT Function Assay (MSD Assay NL20-SI Cell Line). In kind it is cell-based. As to conditions: functionally active AAT (AAT-hNE complex, MSD) in supernatant of NL20 cells expressing human Z-AAT; read-out: NL20 Functional EC50. The essentials:
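Secreted active Z-AAT was measured by MSD electrochemiluminescence: supernatants (45-fold total dilution) were incubated with human neutrophil elastase to form AAT–elastase complexes, captured by goat anti-AAT and detected with labelled anti-elastase. Cells were doxycycline-induced (0.1 μM) NL20 bronchial cells treated with compound overnight; M-AAT standard curve.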

For test [2], the target named is purified Z-AAT protein from human plasma (Homo sapiens (Human), UniProt P01009, E366K). Nature of the test: Biochemical Assay (Z-AAT Elastase Activity Assay). As to conditions: purified Z-AAT pre-incubated with compound 1 hour, then human neutrophil elastase and fluorescent substrate. The gist of the method: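 Purified plasma Z-AAT (20 nM) preincubated with compounds 1 h at room temperature, then 3 nM human neutrophil elastase added in PBS + 0.01% BRIJ35 for 30 min to form suicide complex. Residual elastase activity read immediately by fluorescence after adding 300 μM MeOSuc-AAPV-AMC substrate solution.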
purified Z-AAT protein from human plasma, sequence (P01009 25-418 E366K limits assumed): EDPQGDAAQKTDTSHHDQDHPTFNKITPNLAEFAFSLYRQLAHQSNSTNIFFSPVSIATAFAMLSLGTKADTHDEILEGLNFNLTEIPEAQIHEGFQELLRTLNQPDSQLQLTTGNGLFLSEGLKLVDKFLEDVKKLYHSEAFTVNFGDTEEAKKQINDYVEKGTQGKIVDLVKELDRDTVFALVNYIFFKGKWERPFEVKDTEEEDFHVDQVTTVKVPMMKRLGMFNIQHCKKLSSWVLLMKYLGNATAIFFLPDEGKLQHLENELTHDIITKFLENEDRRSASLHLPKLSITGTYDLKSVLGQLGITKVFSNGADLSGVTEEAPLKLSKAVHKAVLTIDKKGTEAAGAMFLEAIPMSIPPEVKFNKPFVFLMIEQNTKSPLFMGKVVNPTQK

NL20 human bronchial epithelial cells expressing human Z-AAT, sequence (P01009 25-418 E366K limits assumed): as above

As to `Cc1cc(-n2c(C3CCOCC3)c([C@H]3C[C@H](c4nn[nH]n4)C3)c3cc(O)ccc32)ccc1F` [Compound 218, 1-(4-fluoro-3-methyl-phenyl)-2-tetrahydropyran-4-yl-3-[3-(2H-tetrazol-5-yl)cyclobutyl]indol-5-ol], in test [1], the concentration for a half-maximal effect (EC50) was over 2 µM. For the same compound, the IC50 in test [2] is over 30 µM.

On to `Cc1cc(-n2c(C(C)C)c([C@H]3C[C@@H](C(=O)NS(C)(=O)=O)C3)c3cc(O)ccc32)ccc1F` [Compound 219, Cis-3-[1-(4-fluoro-3-methyl-phenyl)-5-hydroxy-2-isopropyl-indol-3-yl]-N-methylsulfonyl-cyclobutanecarboxamide], for which the concentration giving a half-maximal response (EC50) in test [1] is over 2 µM. Also, the IC50 in test [2] is over 5 µM.

Regarding `Cc1cc(-n2c(C(C)C)c([C@H]3C[C@H](C(=O)NS(C)(=O)=O)C3)c3cc(O)ccc32)ccc1F` [Compound 220, trans-3-[1-(4-fluoro-3-methyl-phenyl)-5-hydroxy-2-isopropyl-indol-3-yl]-N-methylsulfonyl-cyclobutanecarboxamide], the EC50 in test [1] was over 2 µM. The IC50 in test [2] is over 5 µM.

Take `Cc1cc(-n2c(C3CCOCC3)c([C@H]3C[C@H](c4noc(=O)[nH]4)C3)c3cc(O)ccc32)ccc1F` [Compound 223, Trans-3-[3-[1-(4-fluoro-3-methyl-phenyl)-5-hydroxy-2-tetrahydropyran-4-yl-indol-3-yl]cyclobutyl]-4H-1,2,4-oxadiazol-5-one]: the concentration giving a half-maximal response (EC50) in test [1] fell in the range of 0.5 to 2 µM. In test [2], the 50% inhibitory concentration (IC50) was over 30 µM.

Take `Cc1cc(-n2c(C3CCOCC3)c([C@H]3C[C@@H](c4noc(=O)[nH]4)C3)c3cc(O)ccc32)ccc1F` [Compound 224, cis-3-[3-[1-(4-fluoro-3-methyl-phenyl)-5-hydroxy-2-tetrahydropyran-4-yl-indol-3-yl]cyclobutyl]-4H-1,2,4-oxadiazol-5-one]: the concentration giving a half-maximal response (EC50) in test [1] was over 2 µM. Besides, the IC50 in test [2] was over 30 µM.

Turning to `Cc1cc(-n2c(C(C)C)c([C@H]3C[C@H](CO)C3)c3cc(O)ccc32)ccc1F` [Compound 225, Trans-1-(4-fluoro-3-methyl-phenyl)-3-[3-(hydroxymethyl)cyclobutyl]-2-isopropyl-indol-5-ol], the EC50 in test [1] is over 2 µM. Moreover, the IC50 in test [2] was over 30 µM.

As to `Cc1cc(-n2c(C(C)C)c([C@H]3C[C@@H](CO)C3)c3cc(O)ccc32)ccc1F` [Compound 226, cis-1-(4-fluoro-3-methyl-phenyl)-3-[3-(hydroxymethyl)cyclobutyl]-2-isopropyl-indol-5-ol], the EC50 in test [1] is over 2 µM. Further, the IC50 in test [2] was over 30 µM.

As to `Cc1cc(-n2c(C(C)C)c([C@@H]3CC[C@@H]3CO)c3cc(O)ccc32)ccc1F` [Compound 227], the EC50 in test [1] was over 2 µM. Further, in test [2], the IC50 was over 30 µM.

The EC50 is the concentration that produces a half-maximal response. Usually IC50 stands for the concentration that inhibits the measured activity by half.
